Patent publication US20070060636A1, “High enantiomeric purity dexanabinol for pharmaceutical compositions” (priority 2002, published 2007)

How the values were obtained:
[1] = in vivo; cited from earlier work
[2] = single dose toxicity and pharmacokinetics, rabbit; assay type: in vivo, New Zealand White rabbits; settings: for AUC(0-inf) / Cmax: plasma, single i.v. 25 mg/kg (NOAEL); for AUC∞ Ratio to Phase I / Cmax Ratio to Phase I / Cmax Ratio to Phase II: single i.v. 25 mg/kg; for AUC∞ Ratio to Phase I / Cmax Ratio to Phase I: vs human 150 mg Phase I; for Cmax Ratio to Phase II: vs human 150 mg Phase II
Experimental: (§1) The pharmacokinetics of dexanabinol of high enantiomeric purity formulated in CREMOPHOR EL®:ethanol as described in Example 4 were investigated in rats, rabbits, and monkeys following intravenous administration of single doses, and 14 and 28 days of repeated dosing. Human pharmacokinetics was studied during Phase I and Phase II clinical studies. Dexanabinol used in the pharmacokinetic studies was formulated as drug concentrates of 50 and 100 mg/ml and diluted with sterile 0.9% NaCl solution prior to intravenous (i.v.) administration to the desired final doses. Determination of dexanabinol concentrations in plasma and brain extracts was carried out using a validated Gas Chromatography-Mass Spectra (GC-MS) assay following solid phase extraction of the drug and derivatization. The limit of quantitation of the assay is 0.1 ng/ml.
(§2) Pharmacokinetic parameters were estimated by a non-compartmental method using WinNonlin Professional version 3.2 (Pharsight Corp., Mountain View, Calif.). The maximum plasma concentration (Cmax), when the drug is administered by infusion, is the concentration at the end of infusion. The Cmax following intravenous bolus administration is the value estimated by the software to be the concentration at t=0. The terminal slope (X) was estimated by linear regression through the last time points and used to calculate the terminal half-life (t1/2) from the following equation: t1/2=0.693/λ The area under the curve from time of dosing through the last time point (AUCz) was calculated by the linear trapezoid method. The AUC extrapolated to infinity (AUC∞) was calculated from the following equation: AUC∞=AUCz+Cz/λ where Cz is the concentration at the last time point predicted by the linear regression. AUC∞ was normalized for dose (mg/kg) and presented as AUC∞/Dose. Mean residence time (MRT), when the drug is administered by infusion is described by the following equation: MRT=(AUMC/AUC)−(TI)/2 Mean residence time after i.v. bolus administration is described by the following equation: MRT=(AUMC/AUC) where AUMC is the area under the first moment curve and TI is the length of infusion. Plasma clearance (CL), and the apparent volume of distribution at steady state (Vss) were calculated from the following equations: CL=Dose/AUC∞ Vss=MRT×CL
(§3) Table 6 summarizes the maximum plasma concentration (Cmax) and the area under the plasma concentration versus time curve (AUC) observed at the NOAEL doses cited above, as well as the animal to human exposure ratios (ER) for dexanabinol of high enantiomeric purity, expressed as the ratio of the pharmacokinetic (PK) parameter to that observed for a 150 mg dose in a Phase I study in human volunteers and in Phase II study in patients suffering from severe traumatic brain injury (TBI).

[3] = single dose toxicity and pharmacokinetics, monkey; assay type: in vivo, Cynomolgus monkeys; settings: for AUC(0-inf) / Cmax: plasma, single i.v. 50 mg/kg (NOAEL); for AUC∞ Ratio to Phase I / Cmax Ratio to Phase I / Cmax Ratio to Phase II: single i.v. 50 mg/kg; for AUC∞ Ratio to Phase I / Cmax Ratio to Phase I: vs human 150 mg Phase I; for Cmax Ratio to Phase II: vs human 150 mg Phase II
Experimental: as §1, §2, §3

CB1 mediated activity = assay: mice tetrad assay (suppression of spontaneous activity, hypothermia, catalepsy); assay type: in vivo; settings: 50 mg/kg intravenously, dexanabinol according to the invention
Text: The prepared sample was further tested for suppression of spontaneous activity, hypothermia, and catalepsy measured in the mice tetrad assay, and clearly produced adverse effects. […] Finally, it caused significant catalepsy, with the animals remaining immobile on the beam for almost 30 seconds.
Psychoactive cannabinoids have a variety of pharmacological effects that are evoked through interactions with the CB1 receptors predominantly expressed in the brain. The central nervous system effects that occur after in vivo exposure to HU-210 include euphoria, hypokinesia, hypothermia, anti-nociception, and catalepsy. Hypokinesia, hypothermia, anti-nociception, and catalepsy are the activities that form the basis of the “Tetrad assay” of CB1 mediated activity. […] The threshold for psychomimetic effects of oral THC in humans is in the range of 10-15 mg THC in an adult, i.e from about 0.16 to about 0.25 mg THC/kg body weight for adults of approximately 60 kg (“Cannabis and Cannabinoids, pharmacology, toxicology and therapeutic potential” edited by Grotenhermen and Russo, the Haworth Integrative Healing Press; Chapter 31 pp 345 and 351).
Dexanabinol according to the present invention was tested for suppression of spontaneous activity, hypothermia, and catalepsy in the mice tetrad assay.

[4] = toxicology studies, single and/or multiple i.v. doses; assay type: in vivo, rats, rabbits, and monkeys
Experimental: In order to support the i.v. testing of dexanabinol of high enantiomeric purity in humans, a series of acute single-dose and sub-chronic multiple dose toxicology studies were conducted to establish the safety profile of the compound in rats, rabbits, and monkeys. The 2-week and 4-week multidose studies included complete clinical and morphological evaluations. In vitro/in vivo mutagenicity studies and special toxicological evaluations have also been carried out to evaluate the safety profile of dexanabinol. The toxicology studies employed doses that were multiples of the proposed clinical doses.

[5] = New Zealand White, iv, rabbit female
[6] = New Zealand White, iv, rabbit male
[7] = both sexes, New Zealand White, iv, rabbit male & female
[8] = both sexes, cynomolgus monkey, iv, monkey male & female
[9] = cynomolgus monkey, iv, monkey female
[10] = cynomolgus monkey, iv, monkey male

SMILES: CCCCCCC(C)(C)c1cc(O)c2c(c1)OC(C)(C)[C@H]1CC=C(CO)C[C@H]21 [dexanabinol, 1,1-dimethylheptyl-(3S,4S)-7-hydroxy-Δ^6-tetrahydrocannabinol]
- cardiovascular effects [1]: devoid of cardiovascular effects
- AUC(0-inf) [2, 5]: 16200 ng·h/mL
- Cmax [2, 5]: 34.5 µg/mL
- AUC(0-inf) [2, 6]: 20100 ng·h/mL
- Cmax [2, 6]: 33.8 µg/mL
- NOAEL ([2]; New Zealand White, rabbit, in vivo, iv, single dose i.v., read-out: no observed adverse effect level (NOAEL)): 25 mg/kg
- AUC(0-inf) [2, 7]: 18200 ng·h/mL
- Cmax [2, 7]: 33.4 µg/mL
- AUC∞ Ratio to Phase I ([2]; rabbit female): 5.1
- Cmax Ratio to Phase I ([2]; rabbit female): 6.9
- Cmax Ratio to Phase II ([2]; rabbit female): 17.6
- AUC∞ Ratio to Phase I ([2]; rabbit male & female): 5.7
- Cmax Ratio to Phase I ([2]; rabbit male & female): 6.7
- Cmax Ratio to Phase II ([2]; rabbit male & female): 17.0
- AUC∞ Ratio to Phase I ([2]; rabbit male): 6.3
- Cmax Ratio to Phase I ([2]; rabbit male): 6.8
- Cmax Ratio to Phase II ([2]; rabbit male): 17.2
- AUC(0-inf) [3, 8]: 127000 ng·h/mL
- Cmax [3, 8]: 171 µg/mL
- NOAEL ([3]; cynomolgus monkey, in vivo, iv, single dose i.v., read-out: no observed adverse effect level (NOAEL)): 50 mg/kg
- AUC(0-inf) [3, 9]: 136000 ng·h/mL
- Cmax [3, 9]: 175 µg/mL
- AUC(0-inf) [3, 10]: 117000 ng·h/mL
- Cmax [3, 10]: 167 µg/mL
- AUC∞ Ratio to Phase I ([3]; monkey female): 42.4
- Cmax Ratio to Phase I ([3]; monkey female): 35.0
- Cmax Ratio to Phase II ([3]; monkey female): 89.0
- AUC∞ Ratio to Phase I ([3]; monkey male & female): 39.5
- Cmax Ratio to Phase I ([3]; monkey male & female): 34.2
- Cmax Ratio to Phase II ([3]; monkey male & female): 86.9
- AUC∞ Ratio to Phase I ([3]; monkey male): 36.6
- Cmax Ratio to Phase I ([3]; monkey male): 33.4
- Cmax Ratio to Phase II ([3]; monkey male): 84.9
- adverse effect in tetrad assay (CB1 mediated activity): no adverse effect
- tolerability ([4]; CREMOPHOR EL:ethanol formulation, single and/or multiple i.v. doses in rats, rabbits and monkeys): generally well tolerated
- psychomimetic side effect ([4]; at dose tested, any of the animal species tested): no psychomimetic side effect
